The source of these data is ChEMBL document CHEMBL4184272, “Violacin A, a new chromanone produced by Streptomyces violaceoruber and its anti-inflammatory activity” (Bioorg Med Chem Lett, 2018).

Active and inactive are the calls of the source. No cut-off for these calls is given here.

In series [1] the test system is RAW264.7. Nature of the series: Anti-inflammatory activity in mouse RAW264.7 cells assessed as inhibition of LPS-stimulated NO production by Griess assay. It is filed as functional, cell-based.
Series [2] deals with Transcription factor p65 (Mus musculus) (UniProt Q04207). Nature of the series: Inhibition of NF-kB p65 signaling pathway in mouse RAW264.7 cells assessed as reduction in LPS-stimulated IkBalpha phosphorylation at 3.3 to 30 uM preincubated for 2 hrs followed by LPS stimulation measured after 30 mins by Western blot method. It is filed as cell-based.
Transcription factor p65 (Mus musculus), sequence (Q04207 whole entry): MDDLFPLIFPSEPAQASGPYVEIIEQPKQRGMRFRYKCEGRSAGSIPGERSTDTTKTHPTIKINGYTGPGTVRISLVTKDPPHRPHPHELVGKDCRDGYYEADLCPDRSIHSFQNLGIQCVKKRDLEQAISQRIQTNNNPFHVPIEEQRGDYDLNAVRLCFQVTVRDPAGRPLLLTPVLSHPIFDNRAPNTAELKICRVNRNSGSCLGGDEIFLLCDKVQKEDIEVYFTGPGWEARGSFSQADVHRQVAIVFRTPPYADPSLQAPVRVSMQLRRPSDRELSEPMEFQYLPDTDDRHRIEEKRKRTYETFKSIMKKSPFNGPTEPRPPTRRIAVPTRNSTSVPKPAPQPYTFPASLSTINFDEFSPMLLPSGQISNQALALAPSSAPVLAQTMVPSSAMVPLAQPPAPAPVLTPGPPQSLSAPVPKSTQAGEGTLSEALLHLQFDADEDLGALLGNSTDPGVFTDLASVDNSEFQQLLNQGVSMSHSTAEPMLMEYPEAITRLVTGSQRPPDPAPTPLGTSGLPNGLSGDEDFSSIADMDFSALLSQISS
Series [3] deals with RAW264.7. Put plainly: Inhibition of NF-kB signaling in mouse RAW264.7 cells assessed as reduction in LPS-stimulated IL-6 mRNA level preincubated for 2 hrs followed by LPS stimulation measured after 4 hrs by qRT-PCR assay. It is filed as cell-based.
Series [4] deals with Transcription factor p65 (Mus musculus) (UniProt Q04207). Nature of the series: Inhibition of LPS-stimulated NF-kB p65 signaling pathway in mouse RAW264.7 cells assessed as IkBalpha accumulation at 3.3 to 30 uM preincubated for 2 hrs followed by LPS stimulation measured after 30 mins by Western blot method. It is filed as cell-based.
Series [5] concerns RAW264.7. Put plainly: Inhibition of NF-kB signaling in mouse RAW264.7 cells assessed as reduction in LPS-stimulated iNOS mRNA level preincubated for 2 hrs followed by LPS stimulation measured after 24 hrs by qRT-PCR method. It is filed as cell-based.
Series [6] has as its target Transcription factor p65 (Mus musculus) (UniProt Q04207). Put plainly: Inhibition of LPS-stimulated NF-kB p65 signaling pathway in mouse RAW264.7 cells assessed as reduction in p65 nuclear translocation at 3.3 to 30 uM preincubated for 2 hrs followed by LPS stimulation measured after 30 mins by Western blot method. It is filed as cell-based.
Series [7] has as its system RAW264.7. Nature of the series: Inhibition of NF-kB signaling in mouse RAW264.7 cells assessed as reduction in LPS-stimulated iNOS protein level at 3.3 to 30 uM preincubated for 2 hrs followed by LPS stimulation measured after 4 hrs by Western blot assay. It is filed as cell-based.
Series [8] deals with RAW264.7. Put plainly: Anti-inflammatory activity in mouse RAW264.7 cells assessed as inhibition of LPS-stimulated NO production preincubated for 2 hrs followed by LPS stimulation measured after 18 hrs by Griess assay. It is filed as functional, cell-based.
The target in series [9] is Transcription factor p65 (Mus musculus) (UniProt Q04207). Nature of the series: Inhibition of NF-kB p65 phosphorylation in mouse RAW264.7 cells at 3.3 to 30 uM preincubated for 2 hrs followed by LPS stimulation measured after 30 mins by Western blot method. It is filed as cell-based.
Series [10] relates to RAW264.7. Put plainly: Cytotoxicity against LPS-stimulated mouse RAW264.7 cells assessed as reduction in cell viability at 3.3 to 90 uM after 24 hrs by MTT assay. It is filed as cell-based. To be noted: raw264.7, 24 h.
The test system of series [11] is RAW264.7. Nature of the series: Inhibition of NF-kB signaling in mouse RAW264.7 cells assessed as reduction in LPS-stimulated IL-1beta mRNA level preincubated for 2 hrs followed by LPS stimulation measured after 4 hrs by qRT-PCR assay. It is filed as cell-based.
The test system of series [12] is RAW264.7. Put plainly: Inhibition of NF-kB signaling in mouse RAW264.7 cells assessed as reduction in LPS-stimulated TNFalpha mRNA level preincubated for 2 hrs followed by LPS stimulation measured after 4 hrs by qRT-PCR assay. It is filed as cell-based.

Regarding `CCCc1c(C(C)=O)c(O)cc2c1C(=O)C[C@H](O)C2`, the IC50 in series [1] was 51.2 µM.
On to `CC(=O)CC1(O)CC(=O)c2c(C)cc(O)cc2O1` (configuration not stated), for which the inhibition entry in [2], in series [4], in [6], in [7] and in series [9] was “Active” in each case. In addition, the inhibition entry in [3], in series [5], in series [8], in [11] and in [12] was “Dose-dependent effect” each time. For the same molecule, the Activity result in series [10] is “Non-Toxic”.
